Here are results for 25 compounds from patent publication US12528786B2, “Plasma kallikrein inhibitors” (Merck Sharp & Dohme LLC, priority 2020, dated 2026).

For this test, the target named is T1, Human plasma kallikrein (Homo sapiens, UniProt P03952).
T1 construct: yields a heavy chain (371 amino acids) and a light chain (248 amino acids); purchased Enzyme Research Laboratories
T1 sequence (P03952 391-638 limits assumed): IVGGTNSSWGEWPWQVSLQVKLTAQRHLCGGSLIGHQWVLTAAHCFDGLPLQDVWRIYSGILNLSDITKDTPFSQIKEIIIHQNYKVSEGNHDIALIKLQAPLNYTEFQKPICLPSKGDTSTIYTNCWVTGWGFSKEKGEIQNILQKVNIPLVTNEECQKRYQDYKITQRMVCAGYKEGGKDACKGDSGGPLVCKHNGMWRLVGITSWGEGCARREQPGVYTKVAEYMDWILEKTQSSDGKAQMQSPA
T1 sequence (P03952 20-390 partner limits assumed): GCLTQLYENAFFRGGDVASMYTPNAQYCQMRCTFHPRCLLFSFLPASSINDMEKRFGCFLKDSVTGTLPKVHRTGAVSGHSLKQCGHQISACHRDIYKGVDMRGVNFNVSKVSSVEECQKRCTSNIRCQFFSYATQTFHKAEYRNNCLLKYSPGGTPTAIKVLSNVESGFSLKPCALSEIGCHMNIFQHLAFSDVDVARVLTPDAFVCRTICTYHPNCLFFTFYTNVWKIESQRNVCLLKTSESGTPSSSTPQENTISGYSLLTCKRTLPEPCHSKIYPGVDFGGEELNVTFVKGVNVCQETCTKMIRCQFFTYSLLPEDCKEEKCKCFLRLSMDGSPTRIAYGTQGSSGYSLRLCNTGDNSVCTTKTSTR
Description: Kallikrein Assay (fluorogenic substrate hydrolysis, AFC release). To be noted: purified Human plasma kallikrein 0.5 nM; substrate Acetyl-K—P—R-AFC 100 mM; 50 mM HEPES pH 7.4. Format: biochemical. The essentials: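 Purified human plasma kallikrein (0.5 nM final) with Acetyl-K-P-R-AFC substrate (final ≤0.2 Km) in 50 mM HEPES pH 7.4, 150 mM NaCl, 5 mM CaCl2, 0.1% PEG 8000, after enzyme–inhibitor equilibration; room temperature or 37° C. AFC fluorescence (405 Ex/510 Em nm) under linear conditions; IC50 by four-parameter fit, Ki via Cheng-Prusoff.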
Usually IC50 stands for the concentration that inhibits the measured activity by half. The compound `Cc1c(N2C[C@H]3C[C@H]3C2=O)ncc(C(C)n2cc(C(=O)NC3CC(c4cc(Cl)ccc4C#N)C3)cn2)c1F` (single isomer, unassigned) [Example 166] showed an IC50 of 1.2 nM.

`Cc1c([C@@H](C)n2cc(C(=O)NC3CC(c4cc(Cl)ccc4C#N)C3)cn2)cnc(N2C[C@H]3C[C@H]3C2=O)c1Cl` (single isomer, unassigned) [Example 167] had an IC50 of 1.9 nM.

Take `Cc1c(C(C)n2cc(C(=O)NC3CC(c4cc(Cl)ccc4C#N)C3)cn2)cnc(N2C[C@H]3C[C@H]3C2=O)c1Cl` (single isomer, unassigned) [Example 168]: the IC50 amounted to 0.1 nM.

As to `Cc1cc(N2C[C@H]3C[C@H]3C2=O)ncc1[C@@H](C)n1cc(C(=O)NC2CC(c3cc(Cl)ccc3C#N)C2)c([C@H](C)O)n1` (single isomer, unassigned) [Example 169], the IC50 amounted to 0.8 nM.

In turn, `Cc1cc(N2C[C@H]3C[C@H]3C2=O)ncc1[C@@H](C)n1cc(C(=O)NC2CC(c3cc(Cl)ccc3C#N)C2)c(C(C)O)n1` (single isomer, unassigned) [Example 170] gave an IC50 of 0.7 nM.

In the case of `Cc1cc(N2C[C@H]3C[C@H]3C2=O)ncc1C(C)n1cc(C(=O)NC2CC(c3cc(Cl)ccc3C#N)C2)c(C(C)O)n1` (single isomer, unassigned) [Example 171], the midpoint of inhibition, the IC50, lay at 5.6 nM.

Compound `N#Cc1ccc(Cl)cc1[C@H]1C[C@@H](NC(=O)c2cnn(Cc3cnc(N4C[C@@H]5C[C@@H]5C4=O)nc3)c2)C1` (stereo in doubt) [Example 1, N-((cis)-3-(5-chloro-2-cyanophenyl)cyclobutyl)-1-((2-((1S,5R)-2-oxo-3-azabicyclo[3.1.0]hexan-3-yl)pyrimidin-5-yl)methyl)-1H-pyrazole-4-carboxamide] gave an IC50 of 8.6 nM.

Take `Cc1cc(N2C[C@H]3C[C@H]3C2=O)ncc1C(C)n1cc(C(=O)NC2CC(c3cc(Cl)ccc3C#N)C2)c([C@H](C)O)n1` (stereo in doubt) [Example 172, N-((cis)-3-(5-chloro-2-cyanophenyl)cyclobutyl)-3-((S)-1-hydroxyethyl)-1-((S)-1-(4-methyl-6-((1R,5S)-2-oxo-3-azabicyclo[3.1.0]hexan-3-yl)pyridin-3-yl)ethyl)-1H-pyrazole-4-carboxamide]: the concentration for half-maximal inhibition (IC50) amounted to 11.1 nM.

Turning to `N#Cc1ccc(Cl)cc1[C@H]1C[C@@H](NC(=O)c2cnn(Cc3cnc(N4C[C@H]5C[C@H]5C4=O)nc3)c2)C1` [Example 2, N-((cis)-3-(5-chloro-2-cyanophenyl)cyclobutyl)-1-((2-((1R,5S)-2-oxo-3-azabicyclo[3.1.0]hexan-3-yl)pyrimidin-5-yl)methyl)-1H-pyrazole-4-carboxamide], half-maximal inhibition (IC50) required 10.6 nM.

Compound `Cc1cc(N2C[C@H]3C[C@H]3C2=O)ncc1Cn1cc(C(=O)N[C@H]2C[C@@H](c3cc(Cl)ccc3C#N)C2)cn1` [Example 37, N-((cis)-3-(5-chloro-2-cyanophenyl)cyclobutyl)-1-((4-methyl-6-((1R,5S)-2-oxo-3-azabicyclo[3.1.0]hexan-3-yl)pyridin-3-yl)methyl)-1H-pyrazole-4-carboxamide] showed an IC50 of 0.7 nM.

Consider `Cc1cc(N2C[C@H]3C[C@H]3C2=O)ncc1Cn1cc(C(=O)N[C@H]2C[C@@H](c3cc(Cl)ccc3C#N)C2)c(C(F)F)n1` [Example 38, N-((cis)-3-(5-chloro-2-cyanophenyl)cyclobutyl)-3-(difluoromethyl)-1-((4-methyl-6-((1R,5S)-2-oxo-3-azabicyclo[3.1.0]hexan-3-yl)pyridin-3-yl)methyl)-1H-pyrazole-4-carboxamide], for which inhibition was half-maximal at 1.1 nM (IC50).

In turn, `Cc1cc(C(C)(C)n2cc(C(=O)N[C@H]3C[C@@H](c4cc(Cl)ccc4C#N)C3)nn2)cnc1N1C[C@H]2C[C@H]2C1=O` [Example 61, N-((cis)-3-(5-chloro-2-cyanophenyl)cyclobutyl)-1-(2-(5-methyl-6-((1R,5S)-2-oxo-3-azabicyclo[3.1.0]hexan-3-yl)pyridin-3-yl)propan-2-yl)-1H-1,2,3-triazole-4-carboxamide] registered an IC50 of 10.1 nM.

For `N#Cc1ccc(Cl)cc1[C@H]1C[C@@H](NC(=O)c2cn(Cc3cnc(N4C[C@H]5C[C@H]5C4=O)nc3)nn2)C1` [Example 79, N-((cis)-3-(5-chloro-2-cyanophenyl)cyclobutyl)-1-((2-((1R,5S)-2-oxo-3-azabicyclo[3.1.0]hexan-3-yl)pyrimidin-5-yl)methyl)-1H-1,2,3-triazole-4-carboxamide], it took 16.1 nM to reach half-maximal inhibition (IC50).

The compound `Cc1c([C@H](C)n2cc(C(=O)N[C@H]3C[C@@](C)(c4cc(Cl)ccc4C#N)C3)nn2)cnc(N2C[C@H]3C[C@H]3C2=O)c1C` [Example 141, N-((cis)-3-(5-chloro-2-cyanophenyl)-3-methylcyclobutyl)-1-((S)-1-(4,5-dimethyl-6-((1R,5S)-2-oxo-3-azabicyclo[3.1.0]hexan-3-yl)pyridin-3-yl)ethyl)-1H-1,2,3-triazole-4-carboxamide] returned an IC50 of 0.2 nM.

As for `Cc1c([C@H](C)n2cc(C(=O)N[C@H]3C[C@@](C)(c4cc(Cl)ccc4C(N)=O)C3)nn2)cnc(N2C[C@H]3C[C@H]3C2=O)c1C` [Example 142, N-((cis)-3-(2-carbamoyl-5-chlorophenyl)-3-methylcyclobutyl)-1-((S)-1-(4,5-dimethyl-6-((1R,5S)-2-oxo-3-azabicyclo[3.1.0]hexan-3-yl)pyridin-3-yl)ethyl)-1H-1,2,3-triazole-4-carboxamide], the IC50 worked out at 0.4 nM.

The compound `Cc1ccc(C#N)c([C@]2(C)C[C@H](NC(=O)c3cn([C@@H](C)c4cnc(N5C[C@H]6C[C@H]6C5=O)c(C)c4C)nn3)C2)c1` [Example 143, N-((cis)-3-(2-cyano-5-methylphenyl)-3-methylcyclobutyl)-1-((S)-1-(4,5-dimethyl-6-((1R,5S)-2-oxo-3-azabicyclo[3.1.0]hexan-3-yl)pyridin-3-yl)ethyl)-1H-1,2,3-triazole-4-carboxamide] registered an IC50 of 0.2 nM.

Regarding `Cc1cc(N2C[C@H]3C[C@H]3C2=O)ncc1[C@H](C)n1cc(C(=O)N[C@H]2C[C@@](C)(c3cc(Cl)ccc3C(N)=O)C2)nn1` [Example 144, N-((cis)-3-(2-carbamoyl-5-chlorophenyl)-3-methylcyclobutyl)-1-((S)-1-(4-methyl-6-((1R,5S)-2-oxo-3-azabicyclo[3.1.0]hexan-3-yl)pyridin-3-yl)ethyl)-1H-1,2,3-triazole-4-carboxamide], the IC50 worked out at 1 nM.

With `[2H][C@]1(c2cc(Cl)ccc2C#N)C[C@@H](NC(=O)c2cn([C@@H](C)c3cnc(N4C[C@H]5C[C@H]5C4=O)cc3C)nn2)C1` [Example 147, N-((cis)-3-(5-chloro-2-cyanophenyl)cyclobutyl-3-d)-1-((S)-1-(4-methyl-6-((1R,5S)-2-oxo-3-azabicyclo[3.1.0]hexan-3-yl)pyridin-3-yl)ethyl)-1H-1,2,3-triazole-4-carboxamide], the IC50 was 0.6 nM.

In turn, `[2H][C@]1(NC(=O)c2cn([C@@H](C)c3cnc(N4C[C@H]5C[C@H]5C4=O)cc3C)nn2)C[C@@H](c2cc(Cl)ccc2C#N)C1` [Example 148, N-((cis)-3-(5-chloro-2-cyanophenyl)cyclobutyl-1-d)-1-((S)-1-(4-methyl-6-((1R,5S)-2-oxo-3-azabicyclo[3.1.0]hexan-3-yl)pyridin-3-yl)ethyl)-1H-1,2,3-triazole-4-carboxamide] showed a half-maximal inhibitory concentration (IC50) of 0.6 nM.

As to `Cc1cc(N2C[C@H]3C[C@H]3C2=O)ncc1[C@H](C)n1cc(C(=O)N[C@H]2C[C@@H](c3cc(Cl)ccc3-n3cc(F)cn3)C2)nn1` [Example 149, N-((cis)-3-(5-chloro-2-(4-fluoro-1H-pyrazol-1-yl)phenyl)cyclobutyl)-1-((S)-1-(4-methyl-6-((1R,5S)-2-oxo-3-azabicyclo[3.1.0]hexan-3-yl)pyridin-3-yl)ethyl)-1H-1,2,3-triazole-4-carboxamide], half-maximal inhibition (IC50) required 5 nM.

For `Cc1c([C@H](C)n2cc(C(=O)NC34CCCC(c5cc(Cl)ccc5C#N)(C3)C4)nn2)cnc(N2C[C@H]3C[C@H]3C2=O)c1C` [Example 150, N-(5-(5-chloro-2-cyanophenyl)bicyclo[3.1.1]heptan-1-yl)-1-((S)-1-(4,5-dimethyl-6-((1R,5S)-2-oxo-3-azabicyclo[3.1.0]hexan-3-yl)pyridin-3-yl)ethyl)-1H-1,2,3-triazole-4-carboxamide], the IC50 worked out at 5.8 nM.

Compound `Cc1c([C@H](C)n2cc(C(=O)N[C@H]3C[C@@H](c4cc(Cl)ccc4C(N)=O)C3)nn2)cnc(N2C[C@H]3C[C@H]3C2=O)c1C` [Example 158] gave an IC50 of 0.9 nM.

In turn, `Cc1cc(N2C[C@H]3C[C@H]3C2=O)ncc1C1(n2cc(C(=O)N[C@H]3C[C@@H](c4cc(Cl)ccc4C#N)C3)cn2)CC1` [Example 159, N-((cis)-3-(5-chloro-2-cyanophenyl)cyclobutyl)-1-(1-(4-methyl-6-((1R,5S)-2-oxo-3-azabicyclo[3.1.0]hexan-3-yl)pyridin-3-yl)cyclopropyl)-1H-pyrazole-4-carboxamide] registered an IC50 of 1.7 nM.

Take `Cc1cc(N2C[C@H]3C[C@H]3C2=O)ncc1C1(n2cc(C(=O)N[C@H]3C[C@@H](c4cc(Cl)ccc4C#N)C3)nn2)CC1` [Example 160, N-((cis)-3-(5-chloro-2-cyanophenyl)cyclobutyl)-1-(1-(4-methyl-6-((1R,5S)-2-oxo-3-azabicyclo[3.1.0]hexan-3-yl)pyridin-3-yl)cyclopropyl)-1H-1,2,3-triazole-4-carboxamide]: the IC50 stood at 6.7 nM.

With `Cc1cc(N2C[C@H]3C[C@H]3C2=O)ncc1[C@H](C)c1cc(C(=O)N[C@H]2C[C@@H](c3cc(Cl)ccc3C#N)C2)n(C)n1` [Example 173, N-((cis)-3-(5-chloro-2-cyanophenyl)cyclobutyl)-1-methyl-3-((S)-1-(4-methyl-6-((1R,5S)-2-oxo-3-azabicyclo[3.1.0]hexan-3-yl)pyridin-3-yl)ethyl)-1H-pyrazole-5-carboxamide], the midpoint of inhibition, the IC50, lay at 3.2 nM.
